Source: patent US6833443B1, “Gymnemic acid derivatives, process for the preparation thereof and use thereof as medicine” (Guilin Jiqi Pharmaceutical Co., Ltd., priority 1999, dated 2004)

How the values were obtained:
rabbit's blood platelets = test: Effect of compound F on aggregation of rabbit's blood platelets in vitro; format: cell-based
Method: Effect of Compound F on Blood Platelet Aggregation in Rabbit
Take blood from rabbit heart by puncturing, add 3.8% of potassium citrate for anticoagulation (1:9), centrifuge for 15 minutes at 1000 rpm, take the upper layer as blood platelet rich plasma (prp), and then centrifuge for 10 minutes at […], and take supematant as blood platelet poor plasma (ppp). The final concentration of compound F is respectively 250, 500, 1000 μg/ml, and the final concentration is respectively 250, 500, 1000 ug/ml. Add 10 ul of physical brine of aspirin to the positive-control tube to a final concentration of 250 μg/ml, and add 10 μl of physical brine to the control tube […]. Observe the maximal aggregation ratio on PAM-1 type instrument of blood platelet aggregation within 3 minute.

[1] = tested on: blood platelet aggregation in rabbits; test: Effect of compound B on blood platelet aggregation in rabbits in vitro (ADP); format: cell-based, rabbit
Method: Blood was taken from rabbit heart by puncture, to which was added 3.8% potassium citrate for anticoagulation (1:9). Certification for 15 minute at 1000 rpm takes the upper layer as rich blood platelet plasma (prp), and then centrifugation for 10 minutes with 4000 rpm takes the supernatant as poor blood platelet plasma (ppp). […] 10 μl physiological brine of aspirin was added to a positive control tube, then it was put into a measuring cell after warming for 2 minutes at 37° C. 10 ul of physiological brine solution of ADP sodium salt was added with stirring. The final concentration is […]. The maximal aggregation ratio on PAM-1 type of blood platelet instrument was observed within 3 minutes.

[2] = tested on: Male Kun Ming strain mice; test: Effect of compound F on blood sugar elevation after oral dextrose; format: in vivo; conditions: dose 50 mg/kg oral, 7 days
Method: Effect of compound F on blood sugar elevation in rat.
Male Kun Ming strain mice are divided into randomly experimental groups, and they respectively took orally the compound F at […]. The positive control group took orally glybenclamide 50 mg/kg, and the blank control group and normal control group take orally the same distilled water. The volume of medicine given is 20 ml/kg, lasting 7 days. They are forbidden to give feedstuff 10 hours before the last time of administration. Each group is given 2.5 g/kg (10 ml/kg) dextrose solution except of normal control group. Before and after 30 minute of administration of dextrose, 100 ul of blood was sampled from the eyepit, and the content of dextrose in serum was measured by way of dextrose oxygenation enzyme.

Female SD rats = test: Effect on increasing blood sugar in rats caused by sucrose; format: in vivo, rat; conditions: for Value of blood sugar: dose 100 mg/kg
Method: Female SD rats fasted for 24 hours and were randomly divided into several groups. […] The normal group, control group and blank group were given the same amount of water. The given medicine volume was […], after 30 minutes each group was given saccharose 1/kg(5 ml/kg) except the normal group, and blood was extracted from the eyes of rats after 30, 60 and 120 minutes respectively, the content of glucose in the serum was measured.

normal mice = test: Effect of compound B on blood sugar in normal mice; format: in vivo; conditions: for Value of blood sugar: dose 100 mg/kg
Method: The positive control group orally took tolbutol at 100 mg/kg. The blank control group took orally same distilled water. The volume of medicine given is 20 ml/kg, lasting 14 days. The test drug was administered (provided that they are pre-forbidden to give food 5 hrs before administration) after the days 1, 3, 7, 14 of administration. 3 hrs after administration, blood (10 ul) was taken from the eyepit. The content of dextrose in serum was measured by reagent box.

CC(=O)Oc1ccccc1C(=O)O [Aspirin, aspirin]
inhibition at 250 µg/mL (rabbit's blood platelets; Oryctolagus cuniculus, Platelet, final concentration 250 μg/ml, read-out: Inhibition rate (%)): 50.3% | Inhibition of aggregation of blood platelet (in words) (rabbit's blood platelets; compound F 500, 1000 μg/ml, aspirin 250 μg/ml): obviously inhibit the aggregation of blood platelet | Maximal aggregation rate (%) (rabbit's blood platelets; final concentration 250 μg/ml, within 3 minute): 23.7 ± 6.0 % | Inhibition of blood platelet aggregation (in words) ([1]; compound B 500, 1000 μg/ml, aspirin 250 μg/ml): obviously inhibit blood platelet from aggregating | Inhibition ratio ([1]; final concentration 250): 50.3 | Maximal aggregation ratio (%) ([1]; final concentration 250 (μg/ml), ADP, within 3 minutes): 23.7 ± 6.0 %

COc1ccc(Cl)cc1C(=O)NCCc1ccc(S(=O)(=O)NC(=O)NC2CCCCC2)cc1 [glybenclamide]
Value of blood sugar ([2]; 0 minute (before dextrose)): 4.48 ± 0.83 | Value of blood sugar ([2]; 30 minutes after dextrose): 8.18 ± 1.72

[H]/N=C(/N)N/C(=N/[H])NCCc1ccccc1 [phenformin]
Effect on the increased value of blood sugar (in words) (Female SD rats; compound B 200 mg/kg, performing 100 mg/kg, within 30 minutes): reduce the increased value of blood sugar remarkably | Value of blood sugar (Female SD rats; 30 minutes after sucrose): 4.24 ± 0.87 mmol/L | Value of blood sugar (Female SD rats; 60 minutes after sucrose): 4.74 ± 0.90 mmol/L | Value of blood sugar (Female SD rats; 120 minutes after sucrose): 4.79 ± 1.03 mmol/L

CCCCNC(=O)NS(=O)(=O)c1ccc(C)cc1 [tolbutol]
Effect on blood sugar of normal mice (in words) (normal mice; Compound B 50, 100, 200 mg/kg for 14 days, tolbutol from day 3): obvious effect for lowering the blood sugar of normal mice | Value of blood sugar (normal mice; day 1): 6.48 ± 1.18 | Value of blood sugar (normal mice; day 3): 5.22 ± 0.80 | Value of blood sugar (normal mice; day 7): 6.62 ± 0.96 | Value of blood sugar (normal mice; day 14): 5.75 ± 1.02
